For test [1], the system named is Chikungunya Virus (CHIKV) strain LR2006-OPY1 with GFP modification (CHIK 5'LR). The test can be described thus: microbe, parasite or virus in culture. The test is classed as cell-based. Conditions: HEK-293T, infected HEK293T cells; for inhibition at 1 µM: compounds at 1 μM, MOI 0.1, 22 h, mean of 2 experiments, values above 100 lowered to 100, read-out: % CHIKV Inhibition Mean (n = 2); for IC50: second round of experiments, range stated for listed compounds, read-out: IC50 (CHIKV inhibition). As for the experimental part: The ability of the compounds to inhibit viral replication was assessed with an experiment in which infected cells were treated by compounds of formula (Ie) at 1 μM. As a positive control for inhibition of Chikungunya, Ribavirin was used. Toxicity of the compounds was assessed in parallel.
Human embryonic kidney cells 293T (HEK293T, CRL-11268) were maintained in Dulbecco's modified Eagle's Medium (DMEM, 31966-021, Thermo Fisher Scientific) supplemented with 10% of fetal bovine serum (FBS), penicillin and streptomycin. After removal of the medium, cells were washed with Ca^2+ and Mg^2+-free salt solution to remove all traces of serum. After aspiration of wash solution, cells were dissociated with 0.25% Trypsin-EDTA solution and incubated 30 s at least in 37° C. incubator. Concentration of cell suspension was determined by an automatic cell counter (EVE, NanoEntek) and, if needed, adjusted to 0.33×10^6 cells/mL with DMEM medium supplemented with 10% FBS.
100 μL of the cell suspension were dispatched in a ViewPlate-96 Black (6005182, PerkinElmer) and in a transparent 96-well cell culture plate (655180, Greiner bio-one). After an incubation for 24 h at 37° C. under 5% of CO2, compounds were added at the proper concentration.
An intermediate dilution was prepared with DMSO (D8418, Sigma) at 2 mM in a 96-well V-bottom microplate from the stock solution:
Mix 1 μL of the 50 mM stock library in 25 μL of DMSO.
Mix 2 μL of the 25 mM stock library in 25 μL of DMSO.
An intermediate dilution was prepared with DMSO (D8418, Sigma) at 25 mM in a 96-well V-bottom microplate from the stock solution:
Mix 2 μL of the 50 mM stock library in 2 μL of DMSO.
Perform serial dilution in 2 μL of DMSO 13 times to reach 0.0015 mM. Proceed as follows in table III:
For both screen and determination of IC50, 1 μL of each solution was added in a 1 mL Masterblock 96 wells (Greiner bio-one, 780261) containing 1 mL of DMEM medium. As a positive control, 5 μL of a 80 mM Ribavirin solution (R9644, Sigma) is added to 1 mL of DMEM. On the other hand, DMSO is used as a negative control.
[…]. Vector Borne Zoonotic Dis. 2006; 6(4)). This modified virus was used to infect cells at MOI 0.1. […].
Medium was removed after 22 h at 37° C. under 5% of CO2 and cells were washed as described above. 60 μL of RIPA buffer (50 mM Tris-HCl pH8, 100 mM NaCl, 1 mM MgCl2, 1% Triton X-100) was added to cells and incubated for at least 20 min before reading fluorescence signal. Pierce 660 nm Protein Assay Reagent (22660, Thermo scientific) was used to normalize fluorescence signal by protein quantity.
• A first round of experiments has been performed wherein the results are expressed as inhibition percentage, which is calculated as follows, through the following steps: • 1. Fluorescence intensity (FI)/Absorbance 660 nm (A660)=A
This ratio allows considering the infection (GFP virus) to the protein amount. • 2. A′=A−background noise of non-infected plate, • 3. B=Fluorescence intensity (FI)/Absorbance 660 nm (A660) of infected but non treated plates, • 4. C=A′/B, which is then converted as the percentage of infection after treatment, compared to non-treated sample, and subsequently as the infection percentage. For instance, a value of 100 in Table IV here below means that, after treatment, the signal attributed to GFP fluorescence is abolished, which is correlated to the absence of infection. • 5. C′=100−C
This value corresponds to the inhibition's percentage.
The following Table IV encompasses said C′ value for some compounds, as calculated above with a mean of 2 experiments, and corresponding standard deviation.
Some values were originally above 100. In these cases, the value has been lowered to 100. This means that some molecules also have an impact on the viability of the cells. In other words, the A value may be lower than the background noise.
Moreover, for each measure, the test was performed with Ribavirin as control. The value of the inhibition percentage was checked, giving 100%.

Test [2] relates to DENV-2 strain 16681. The test can be described thus: DENV-2 inhibition (cytopathic effect inhibition) using Viral ToxGlo assay in A549 cells. The test is classed as cell-based, Dengue 2 virus. Particulars: Dengue virus, DENV2, 120 h, compounds at 10 μM, MOI 0.5, 5 days p.i., read-out: % DENV-2 Inhibition Mean (n = 3). How it is done:
Protocol for Screening Antiviral Compounds for DENV-2 Inhibition and Cytotoxicity Using Viral ToxGlo Assay
A549 cells were maintained in Dulbecco's Modified Eagle Medium (DMEM) supplemented with 10% fetal bovine serum, 100 U/ml penicillin and 100 μg/ml streptomycin. For the purposes of the screening assay they were grown to 90% confluency, trypsinized and recovered. The trypsin was neutralised with cell culture media and cells were centrifuged at 150×g for 5 minutes before discarding the supernatant and resuspending cell pellet in assay media (DMEM supplemented with 2% fetal bovine serum and 100 U/ml penicillin and 100 μg/ml streptomycin). The cells were seeded into 96-well white clear-bottomed cell culture plates at a density of 1.0×10^4 cells/well in 50 μl. For the media/background control column assay media only was added. Cell plates were placed in a humid chamber and incubated overnight at 37° C./5% CO2. After overnight incubation cells were checked for confluency and healthy appearance.
Test compounds were prepared at a final concentration of 10 μM in a maximum DMSO concentration of 1% (final assay concentration maximal 0.1% DMSO) and added to the cell plates in volumes of 10 μl. For cell control and virus control wells the test article solvent only was added. As a positive inhibition control, 7-Deaza-2′-C-methyladenosine was added at 100 μM in 3 wells. Virus (DENV-2 strain 16681) or assay media for cytotoxicity test wells and media/cell control wells was added immediately after test articles at an MOI of 0.5, 40 for 96 well plates respectively. Virus suspension was prepared by thawing DENV-2 frozen stocks and diluting to the required concentration of plaque forming units in assay media.
Cell plates were further incubated inside a humid chamber for 5 days p.i at 37° C./5% CO2. After the incubation period cells were observed under the microscope to check for characteristic cytopathic effect in virus control wells and healthy cells in the cell control wells. After plates were adjusted to room temperature 20 μl Viral ToxGlo (Promega) was added to each well of the 96-well cell plates. Plates were incubated at room temperature for 5 minutes before measuring the luminescence on a spectrophotometer (Envision, PerkinElmer).
DENV-2 inhibition was calculated as percentage of cytopathic effect inhibition relative to the virus control and cytotoxicity as percentage of cell survival relative to cell control wells.
For orientation: Damage to the host cells serves as the signal in cytopathic effect assays.

In patent US12421206B2, “Aryl-n-aryl derivatives for treating a RNA virus infection” (ABIVAX, priority 2018, dated 2025) one finds inhibition and IC50 data, which are given here for 5 compounds.

As a reminder, the inhibition is the change of the read-out against control, counted positive when it falls. In general, IC50 refers to the concentration that inhibits the measured activity by half.

Take `O=C(NCCC1CCCCC1)c1cccc(Nc2ccc(OCc3ccccn3)cc2)c1` [Compound 38, N-(2-cyclohexylethyl)-3-((4-(pyridin-2-ylmethoxy)phenyl)amino)benzamide]: the inhibition at 1 µM in test [1] was 99%. Moreover, in test [2], the inhibition at 10 µM was 65%.

In the case of `Cc1cc(OCc2ccccn2)ccc1Nc1cccc(C(=O)NCCC2CC2)c1` [Compound 45, N-(2-cyclopropylethyl)-3-((2-methyl-4-(pyridin-2-ylmethoxy)phenyl)amino)benzamide], the inhibition at 1 µM in test [1] was determined as 99%. For the same compound, in test [2], the inhibition at 10 µM turned out to be 89%.

With `Cc1cc(OCc2ccccn2)ccc1Nc1cccc(C(=O)NCCC2CCC2)c1` [Compound 46, N-(2-cyclobutylethyl)-3-((2-methyl-4-(pyridin-2-ylmethoxy)phenyl)amino)benzamide], in test [1], the inhibition at 1 µM was determined as 99%. The inhibition at 10 µM in test [2] is 71%.

Regarding `CCCC(C)NC(=O)c1cccc(Nc2ccc(OCc3ccccn3)cc2)c1` (stereo not shown) [Compound 64, N-(pentan-2-yl)-3-((4-(pyridin-2-ylmethoxy)phenyl)amino)benzamide], the IC50 in test [1] fell in the range of 1 to 400 nM. Moreover, in test [2], the inhibition at 10 µM was 93%.

With `Cc1cc(OCc2ccccn2)ccc1Nc1cccc(NC(=O)NCCC(C)C)c1` [Compound 68, 1-isopentyl-3-(3-((2-methyl-4-(pyridin-2-ylmethoxy)phenyl)amino)phenyl)urea], the IC50 in test [1] fell in the range of 1 to 400 nM. Besides, the inhibition at 10 µM in test [2] is 70%.
